From patent publication US5595763A (priority 1995, dated 1997) come the findings set out here.

The test system of data set [1] is rat treated neonatally with low doses of streptozocin. As to conditions: in vivo.
In the next data set the test system is diabetic rats. Conditions: treated diabetic rats, experiments run in parallel.

On to `[Na+].[Na+].[O]=[W](=[O])([O-])[O-]` [sodium tungstate], for which, in data set [1], the survival result was “all animals survived”. Also, the mortality result with diabetic rats is “about 10%”.
